One assay has as its target DRB1*01:01 (Homo sapiens, UniProt P01903+P01911, A100R/D57E/F55L/F60I/F76Y/I96L/L162R/M171V/P40L/Q125E/R42F/V115G/Y59C). In words: competition binding assay, purified HLA DRB1*01:01. As to conditions: for IC50: purified HLA, radiolabeled peptide competition, nM, read-out: binding to DRB1*01:01 (IC50).
In a further assay the target is DRB1*12:01 (Homo sapiens, UniProt P01903+P01911, A100R/A169T/D57E/D86V/F55L/H45Y/K41T/L162R/M171V/P40S/Q125H/Q178H/Q39Y/Q99D/R42G/S66L/T262R/V114A/V67L/W38E/Y59H/Y61H/Y89S). Briefly: competition binding assay, purified HLA DRB1*12:01. As to conditions: for IC50: purified HLA, radiolabeled peptide competition, nM, read-out: binding to DRB1*12:01 (IC50).
The target in the next assay is DRB3*02:02 (Homo sapiens, UniProt P01903+P79483, A212P/D57E/F66Y/L67A/R103Q/R218S/R40L/S89Y/T80R/V86D/Y55F/Y59H). In words: competition binding assay, purified HLA DRB3*02:02. As to conditions: for IC50: purified HLA, radiolabeled peptide competition, nM, read-out: binding to DRB3*02:02 (IC50).
The next assay has as its target T1, DPB1*03:01 (Homo sapiens, UniProt P04440+P20036, A65V/A84D/A85E/E86D/F38Y/G113D/G114E/G40L/I94L/L37V/M105V/M116V/P115A/R125K/T199I).
T1 sequence (P20036 29-260): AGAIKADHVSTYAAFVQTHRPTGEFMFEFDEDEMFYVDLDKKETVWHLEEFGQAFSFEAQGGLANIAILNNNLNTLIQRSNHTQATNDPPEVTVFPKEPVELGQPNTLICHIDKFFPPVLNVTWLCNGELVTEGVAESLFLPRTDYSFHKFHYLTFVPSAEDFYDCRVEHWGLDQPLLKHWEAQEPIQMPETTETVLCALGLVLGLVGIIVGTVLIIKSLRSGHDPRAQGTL
T1 sequence (P04440 30-258 L37V/F38Y/G40L/A65V/A84D/A85E/E86D/I94L/M105V/G113D/G114E/P115A/M116V/R125K/T199I): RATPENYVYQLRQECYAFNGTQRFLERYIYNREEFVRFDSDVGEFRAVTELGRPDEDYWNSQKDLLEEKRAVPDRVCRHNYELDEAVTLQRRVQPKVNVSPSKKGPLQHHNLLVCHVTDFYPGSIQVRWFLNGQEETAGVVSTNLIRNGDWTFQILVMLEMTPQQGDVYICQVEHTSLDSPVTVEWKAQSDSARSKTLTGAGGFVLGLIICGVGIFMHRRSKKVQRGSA
Briefly: competition binding assay, purified HLA DPB1*03:01.

For the next assay, the target named is DRB1*07:01 (Homo sapiens, UniProt P01903+P01911, A100R/A102G/A103Q/D57E/D86V/E43K/F76Y/K127E/L162R/M171V/P40G/Q125H/Q99D/R33Q/R42Y/R54Q/S133A/S66F/T210M/V115G/Y107V/Y59L/Y89S). In words: competition binding assay, purified HLA DRB1*07:01. Conditions: for IC50: purified HLA, radiolabeled peptide competition, nM, read-out: binding to DRB1*07:01 (IC50).
Another assay addresses T2, DPB1*02:01 (Homo sapiens, UniProt P04440+P20036, A65V/A84D/A85E/K98E).
T2 sequence (P20036 29-260): T1 sequence (P20036 29-260)
T2 sequence (P04440 30-258 A65V/A84D/A85E/K98E): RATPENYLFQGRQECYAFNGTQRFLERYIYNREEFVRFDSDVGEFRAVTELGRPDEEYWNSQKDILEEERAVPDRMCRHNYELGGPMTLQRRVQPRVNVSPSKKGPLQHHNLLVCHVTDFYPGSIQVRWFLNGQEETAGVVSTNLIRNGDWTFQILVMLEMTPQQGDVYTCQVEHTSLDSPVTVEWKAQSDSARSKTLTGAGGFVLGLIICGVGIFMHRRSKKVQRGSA
Briefly: competition binding assay, purified HLA DPB1*02:01.

The next assay has as its target DRB1*03:01 (Homo sapiens, UniProt P01903+P01911, A100K/A102G/A103R/A169T/F55Y/I96L/K41T/L162R/M171V/P40S/Q125H/Q178H/Q39Y/R42S/S66N/T106N/T262R/W38E/Y61H). In words: competition binding assay, purified HLA DRB1*03:01. As to conditions: for IC50: purified HLA, radiolabeled peptide competition, nM, read-out: binding to DRB1*03:01 (IC50).
A further assay deals with DRB1*04:05 (Homo sapiens, UniProt P01903+P01911, A100R/A169T/D86S/F76Y/I96L/K127E/L162R/M171V/N62H/P40V/Q125Y/R42H/S133A/S149N/S66Y/V115G/V209L/W38E). In words: competition binding assay, purified HLA DRB1*04:05. Conditions: for IC50: purified HLA, radiolabeled peptide competition, nM, read-out: binding to DRB1*04:05 (IC50).
A further assay deals with DRB4*01:01 (Homo sapiens, UniProt P01903+P13762, G164S). Briefly: competition binding assay, purified HLA DRB4*01:01. Conditions: for IC50: purified HLA, radiolabeled peptide competition, nM, read-out: binding to DRB4*01:01 (IC50).
The target in a further assay is DRB1*13:02 (Homo sapiens, UniProt P01903+P01911, A100E/A169T/K41T/L162R/M171V/P40S/Q125H/Q178H/Q39Y/Q99D/R42S/S66N/T262R/V115G/W38E/Y61H). In words: competition binding assay, purified HLA DRB1*13:02. As to conditions: for IC50: purified HLA, radiolabeled peptide competition, nM, read-out: binding to DRB1*13:02 (IC50).
A further assay has as its target T3, DPB1*05:01 (Homo sapiens, UniProt P04440+P20036, A65V/A84E/F191V/F64L/G113D/G114E/K142R/L158P/M116V/M62Q/P115A/Q81R/R125K/T114A/T199I/T259P/V234M).
T3 sequence (P20036 29-260 M62Q/Q81R/T114A/K142R/L158P/F191V/T259P): T1 sequence (P20036 29-260) with M34Q, Q53R, T86A, K114R, L130P, F163V, T231P
T3 sequence (P04440 30-258 F64L/A65V/A84E/G113D/G114E/P115A/M116V/R125K/T199I/V234M): T1 sequence (P04440 30-258 L37V/F38Y/G40L/A65V/A84D/A85E/E86D/I94L/M105V/G113D/G114E/P115A/M116V/R125K/T199I) with V8L, Y9F, L11G, F35L, D55E, E56A, D57E, L65I, V76M, V205M
In words: competition binding assay, purified HLA DPB1*05:01.

A further assay has as its target T4, DPB1*04:02 (Homo sapiens, UniProt P04440+P20036, A65V/A84D/A85E/L207M).
T4 sequence (P04440 30-258 A65V/A84D/A85E/L207M): T2 sequence (P04440 30-258 A65V/A84D/A85E/K98E) with E69K, L178M
T4 sequence (P20036 29-260): T1 sequence (P20036 29-260)
Briefly: competition binding assay, purified HLA DPB1*04:02.

The record followed here is patent publication US20200095296A1, “USE OF PEPTIDES AS BIOMARKERS IN THE DIAGNOSIS, CONFIRMATION AND TREATMENT OF A NEUROLOGICAL DISORDER AND TCR AND/OR HLA IMMUNOPROFILING IN NEURODEGENERATIVE DISEASE” (THE TRUSTEES OF COLUMBIA UNIVERSITY IN THE CITY OF NEW YORK, priority 2017, published 2020).

Changes are numbered by the printed parent chain. pIC50: −log10 of the molar value. Like-named read-outs stand apart in the source and are kept apart here.

In general, IC50 refers to the midpoint of a concentration-inhibition curve. The pIC50 is the IC50 on a negative log10 scale, so that one unit is a factor of ten. A higher pIC50 goes with a low IC50.

For the compound `CSCC[C@H](NC(=O)[C@@H](N)CCC(=O)O)C(=O)N1CCC[C@H]1C(=O)N[C@@H](COP(=O)(O)O)C(=O)N[C@@H](CCC(=O)O)C(=O)N[C@@H](CCC(=O)O)C(=O)NCC(=O)N[C@@H](Cc1ccc(O)cc1)C(=O)N[C@@H](CCC(N)=O)C(=O)N[C@@H](CC(=O)O)C(=O)N[C@@H](Cc1ccc(O)cc1)C(=O)N[C@@H](CCC(=O)O)C(=O)N1CCC[C@H]1C(=O)N[C@@H](CCC(=O)O)C(=O)N[C@@H](C)C(=O)O`, the IC50 on DRB1*01:01, on DRB1*12:01, at DRB3*02:02, on DRB1*07:01, at DRB1*03:01 and on DRB1*04:05 was over 10000 nM each time. Further, the half-inhibitory concentration (IC50) on DRB4*01:01 and at DRB1*13:02 was over 10000 nM in each case. For the same compound, the negative-log IC50 (pIC50) on DPB1*03:01, at DPB1*02:01, on DPB1*05:01 and on DPB1*04:02 was under 5.00 throughout.
For the compound `CSCC[C@H](NC(=O)[C@H](CCC(=O)O)NC(=O)[C@H](Cc1ccc(O)cc1)NC(=O)[C@H](C)NC(=O)[C@H](CCC(=O)O)NC(=O)[C@H](CC(N)=O)NC(=O)[C@@H](N)CC(=O)O)C(=O)N1CCC[C@H]1C(=O)N[C@@H](COP(=O)(O)O)C(=O)N[C@@H](CCC(=O)O)C(=O)N[C@@H](CCC(=O)O)C(=O)NCC(=O)N[C@@H](Cc1ccc(O)cc1)C(=O)N[C@@H](CCC(N)=O)C(=O)N[C@@H](CC(=O)O)C(=O)O`, the IC50 on DRB1*01:01 is over 10000 nM; on DRB1*12:01, over 10000 nM; on DRB3*02:02, over 10000 nM; on DPB1*03:01 (purified HLA, radiolabeled peptide competition, nM, read-out: binding to DPB1*03:01 (IC50)), over 10000 nM; at DRB1*07:01 it was over 10000 nM; at DPB1*02:01 (purified HLA, radiolabeled peptide competition, nM, read-out: binding to DPB1*02:01 (IC50)) it was over 10000 nM. In addition, the IC50 is over 10000 nM at DRB1*03:01; over 10000 nM at DRB1*04:05; over 10000 nM on DRB4*01:01; over 10000 nM on DRB1*13:02; over 10000 nM at DPB1*05:01 (purified HLA, radiolabeled peptide competition, nM, read-out: binding to DPB1*05:01 (IC50)); over 10000 nM at DPB1*04:02 (purified HLA, radiolabeled peptide competition, nM, read-out: binding to DPB1*04:02 (IC50)).
Consider `CSCC[C@H](NC(=O)[C@H](CCC(=O)O)NC(=O)[C@H](Cc1ccc(O)cc1)NC(=O)[C@H](C)NC(=O)[C@H](CCC(=O)O)NC(=O)[C@H](CC(N)=O)NC(=O)[C@@H](N)CC(=O)O)C(=O)N1CCC[C@H]1C(=O)N[C@@H](CO)C(=O)N[C@@H](CCC(=O)O)C(=O)N[C@@H](CCC(=O)O)C(=O)NCC(=O)N[C@@H](Cc1ccc(O)cc1)C(=O)N[C@@H](CCC(N)=O)C(=O)N[C@@H](CC(=O)O)C(=O)O`, for which the pIC50 at DRB1*01:01, on DRB1*12:01, on DRB3*02:02, on DPB1*03:01, at DRB1*07:01 and at DPB1*02:01 was under 5.00 in each case. Moreover, the negative logarithm of the IC50 (pIC50) was under 5.00 on DRB1*03:01; 5.71 at DRB1*04:05; under 5.00 on DRB4*01:01; under 5.00 at DRB1*13:02; under 5.00 at DPB1*05:01; under 5.00 on DPB1*04:02.
